PubChem BioAssay AID2695 (Broad Institute, 2010)
Converted amounts (≈) assume the structure as drawn. Results filed as inconclusive are left out. The source made the active and inactive calls.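 How the source made its calls: active means a dose response, with MIC, the lowest growth-blocking dose, below the top tested dose; inconclusive means replicates split around the top dose, or self-fluorescent without titration; inactive means MIC above the top tested dose.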

Test system: C. albicans SC5314 growth, alamar blue fluorescence
Assay: Candida albicans viability loss, MIC – SC5314, Alamar Blue fluorescence, dose response (AID 2695)
Conditions: 6.5 h

With `CC(=O)c1ccc(Sc2ccccc2)c([N+](=O)[O-])c1` the MIC was 16.6 µM (≈ 4.54 µg/mL).

Compound `COc1cc(/C=C2/SC(=S)N(Cc3ccccc3)C2=O)cc(OC)c1O` has an MIC of 17.5 µM (≈ 6.78 µg/mL).

For `COc1cc(/C=C2\SC(=S)N(NC(=O)c3ccncc3)C2=O)ccc1O`, the MIC was > 33 µM (inactive).

With `Nc1ncnc2c1ncn2C1OC(CO)CC1O` (stereo unspecified) the MIC was > 33 µM (inactive).

`O=C(COC(=O)Cc1ccc(S(=O)(=O)N2CCOCC2)s1)NCc1ccc(Cl)cc1` was tested, and the MIC was > 33 µM (inactive).

Compound `Cc1ccc(C(=O)c2no[n+]([O-])c2C(=O)c2ccc(C)cc2)cc1` has an MIC of 16.6 µM (≈ 5.35 µg/mL).

`N#C/C(=C/c1ccc([N+](=O)[O-])o1)c1nc2ccccc2[nH]1` was tested, and the MIC was 4.1 µM (≈ 1.15 µg/mL).

For `Cc1ccc(Nc2c(-c3ccc(C)o3)nc3ncccn23)cc1`, the MIC was > 33 µM (inactive).

`O=C(O)CN1C(=O)/C(=C\c2ccc(N3CCCCC3)o2)SC1=S` was tested, and the MIC was > 33 µM (inactive).

In the case of `O=C(Oc1c(-c2ccccc2)c(=O)n2c3c(cccc13)CC2)c1cccc([N+](=O)[O-])c1`, the MIC is reported as > 33 µM (inactive).

For `COc1cc(/C=C2/CC/C(=C/c3ccc(O)c(OC)c3)C2=O)ccc1O`, the MIC was > 33 µM (inactive).

With `COc1cc(/C=C2\SC(=S)N(NC(=O)c3cccnc3)C2=O)ccc1O` the MIC was > 33 µM (inactive).

In the case of `CCOc1cc(/C=C2\N=C(SC(C)C(N)=O)N(c3ccc(OC(F)F)cc3)C2=O)ccc1O` (stereo unspecified), the MIC is reported as > 33 µM (inactive).

In the case of `Cc1ccc(-c2nn3c(C)nnc3s2)cc1NC(=O)CSc1ccc(Cl)cc1`, the MIC is reported as > 33 µM (inactive).

`Cc1ccc2nc(/C(C#N)=C/c3ccc([N+](=O)[O-])o3)[nH]c2c1` showed an MIC of 2.1 µM (≈ 0.618 µg/mL).

With `N#CC1(C#N)C2=C(CCCC2)NC(c2ccccc2)C1(C#N)C#N` (stereo unspecified) the MIC was > 33 µM (inactive).
